# Data as given in patent publication US12233129B2, “Methods and compositions for the treatment of cancer” (priority 2019, dated 2025).
# Entries after “also recorded” stand apart in the source; their conditions may differ.
# What was measured:
# Format in all cases: cell-based, human
# HCT-116 p53−/− = test: MTT cell viability assay
# Procedure: (§1) We decided to confirm whether VTD-induced tumor suppression is indeed mediated via the UBXN2A-mot-2-p53 axis (FIG. 18H). After initial verification with WB (FIG. 18A), HCT-116 (p53+/+ and p53 −/−) and LoVo were treated with VTD for 24, 48, and 72 hours (FIG. 18B-D). […] We defined this phenomenon as a delayed cytotoxic response, since it occurs through UBXN2A transcription, as previously described for other anti-cancer agents. […] In the second set of experiments, we treated two stable UBXN2A silenced clones of HCT-116 along with controls with VTD. […] Staurosporine-treated cells were used as a positive control (S4F). […] Finally, to understand the contribution of mot-2 to the anti-cancer mechanism of VTD, we used a mot-2 inhibitor known as MKT-077 [7] along with VTD in well-differentiated SW-48 (WT-p53) colon cancer cells for 72 hours. Due to the critical role of mot-2 in the mitochondria, we could not use a silencing strategy for mot-2 in this set of experiments.
# (§2) The viability of cells was calculated as % of control.
# (§3) FIG. 18: Veratridine (VTD) functions via the UBXN2A-mot-2-p53 axis. (A) WB confirmed the presence and the absence of p53 protein in HCT-116 p53^(+/+) and HCT-116 p53^(−/−) cancer cell lines, respectively. […] (F) In another set of experiments, UBXN2A-silenced cells were treated with VTD (100, 200, and 300 μM) for 24 hours. Cells were then labelled with Sytox Red followed by flow cytometry analysis. […] (G) SW48 well-differentiated colon cancer cells with WT-p53 were treated with MKT-077 (5 mg/ml), an mot-2 inhibitor, along with VTD for 72 hours. […] (H) This flowchart recapped the sequence of proteins which activate and function upon VTD exposure to decrease cell viability. The data is shown as mean±SEM of three independent experiments (n=3) in triplicate where *p<0.05 using Benferroni's modified student's t-test.
# LoVo [1] = test: MTT cell viability assay
# Procedure: as §1, §2, §3
# HCT-116 p53+/+ = test: MTT cell viability assay
# Procedure: as §1, §2, §3
# U2OS [2] = test: Cell detachment assay and live cell imaging; details: dose- and time-dependent
# Procedure: (§4) Based on the above results, we then hypothesized that VTD-induced UBXN2A leads to apoptosis and cell death mimicking the Tet-on induced-UBXN2A model (FIG. 15). As cell detachment and cell shrinking are ubiquitous aspects of apoptosis, we examined these features in four cancer cell lines: HCT116 (WT-p53), LoVo (WT-p53), SW-480 (mutant-p53), and U2OS (WT-p53), all in the presence of VTD (FIG. 17, S4).
# as §2
# (§5) FIG. 17: Induction of apoptosis and in vitro cytotoxicity by VTD in a human cancer cell line with different statuses of p53 and mot-2. (A-D) Cells were treated with VTD for 24, 48, and 72 hours. After incubation, dead cells were washed off, and the remaining attached cells were calculated by counting in five random fields using the Axiovert 200 M inverted microscope and AxioVision software (cell detachment assay). The % of cells attached was calculated as % of control cells. […] The data is shown as mean+SEM of three independent experiments (n=3, *p<0.05). (E-K) Cells were plated for 5 days, and the colonies of cells were treated with different concentration of VTD. The colonies of viable cells were stained with crystal violet dye and absorbance, as an index of measurement of colony forming units, was read at 562 nm (clonogenic survival assay). VTD induced a significant decrease in cell viability in a p53- and differentiation grade manner in HCT-116 poorly differentiated cells (E), HCT 116 p53+/−(F), HCT-116 p53−/− (G), LoVo well-differentiated cells (H), SW-480 (K), and two non-colon cancer cells: HepG2 (I) and U2OS (J). The data is shown as mean+SEM of three independent experiments (n=3, *p<0.05). (L) Determination of endogenous levels of mot-2, UBXN2A, HSC70, and p53 proteins in various cancer cell lines using WB. (M) HCT-116 cells were treated with VTD (10 and 30 μM) and cytoplasmic and nuclear fractions were subjected to WB. HSC70 and Orc-2 antibodies were used as cytoplasmic and nuclear markers, respectively.
# HCT-116 [3] = test: Cell detachment assay and live cell imaging; details: dose- and time-dependent
# Procedure: as §4, §2, §5
# LoVo [4] = test: Cell detachment assay and live cell imaging; details: dose- and time-dependent
# Procedure: as §4, §2, §5
# SW480 [5] = test: Cell detachment assay and live cell imaging; details: mutant p53
# Procedure: as §4, §2, §5
# [6] = system: HCT-116 p53+/− or p53 −/−; test: Clonogenic survival assay; details: effective doses
# Excerpt: (§6) We next performed a clonogenic survival assay (S4E) to determine colony formation in cancer cells in the presence and absence of VTD. […] At the same time, we measured the mot-2, p53, and UBXN2A protein levels in all these cell lines. […] To verify whether VTD-induced cell death is mediated through the UBXN2A-mot-2-p53 axis, we looked at the expression of p53 in the cytoplasm and nucleus of HCT-116 cells following VTD treatment. […] Due to a high cell death in higher doses of VTD, we could not use WB analysis for reliable p53 and UBXN2A detection and quantification. Finally, we checked the effect of VTD on non-cancerous cell lines. We incubated human umbilical vein endothelial cells (HUVECs), which mimic non-cancerous endothelial cells next to tumor cells, with VTD (S4G). […] Due to the different levels of the stress condition, we observed more sensitivity to VTD in LoVo and U2OS cells versus HCT-116 cells. In addition, lack of similar response in normal cells due to the absence of stresses and cytoplasmic mot-2 further explains VTD is therefore a drug that selectively targets cancer cell.
# as §2, §5
# U2OS [7] = test: Clonogenic survival assay; details: as low as 30 μM VTD
# Excerpt: as §6, §2, §5
# HCT-116 [8] = test: Clonogenic survival assay; details: in higher doses
# Excerpt: as §6, §2, §5
# HepG2 = test: Clonogenic survival assay; details: as low as 30 μM VTD
# Excerpt: as §6, §2, §5
# LoVo [9] = test: Clonogenic survival assay; details: as low as 30 μM VTD
# Excerpt: as §6, §2, §5
# SW480 [10] = test: Clonogenic survival assay; details: mutant p53, even at higher doses
# Excerpt: as §6, §2, §5
smiles,measurement,setting,value
"COc1ccc(C(=O)O[C@H]2CC[C@@]3(C)[C@@H]4CC[C@H]5[C@]6(O)C[C@H](O)[C@@]7(O)[C@@H](CN8C[C@@H](C)CC[C@H]8[C@@]7(C)O)[C@]6(O)C[C@@]53O[C@]24O)cc1OC [VTD, Veratridine]",cell viability (MTT),HCT-116 p53−/−; 48 and 72 hours,started to respond to VTD at higher doses after 48 hours; also recorded: more resistance to VTD's effects
same,cell viability (MTT),HCT-116 p53−/−; 24 hour treatment,not sufficient to produce any cytotoxic or anti-proliferative effect
same,cell viability (MTT),LoVo [1]; 48 and 72 hours,reduction of cell viability reached a maximum at 72 hours; also recorded: highest sensitivity to VTD
same,cell viability (MTT),"LoVo [1]; 24 hour treatment, higher doses",significantly decreases the viability
same,cell viability (MTT),"HCT-116 p53+/+; 48 and 72 hours, compared with HCT-116 p53−/−",significantly lower
same,cell viability (MTT),HCT-116 p53+/+; 24 hour treatment,not sufficient to produce any cytotoxic or anti-proliferative effect
same,cell detachment (% of cells attached),"U2OS [2]; 24, 48 and 72 hours",significantly increases cell detachment; also recorded: significantly decreases the % of cells attached
same,cell shrinking and rounding (live cell imaging),U2OS [2],induces cell shrinking and rounding
same,cell detachment (% of cells attached),"HCT-116 [3]; 24, 48 and 72 hours",significantly increases cell detachment; also recorded: significantly decreases the % of cells attached
same,cell shrinking and rounding (live cell imaging),HCT-116 [3],induces cell shrinking and rounding
same,cell detachment (% of cells attached),"LoVo [4]; 24, 48 and 72 hours",significantly increases cell detachment; also recorded: significantly decreases the % of cells attached
same,cell shrinking and rounding (live cell imaging),LoVo [4],induces cell shrinking and rounding
same,cell detachment (% of cells attached),"SW480 [5]; 24, 48 and 72 hours",no effect on cell detachment; also recorded: not with mutant p53
same,cell shrinking and rounding (live cell imaging),SW480 [5],remain unchanged
same,p53 dependence of anti-colony formation role,[6],partially p53 dependent
same,number of colonies,U2OS [7],significantly decreases the number of colonies
same,colony formation,HCT-116 [8],reduces colony formation
same,number of colonies,HepG2,significantly decreases the number of colonies
same,number of colonies,LoVo [9],significantly decreases the number of colonies
same,number of colonies,SW480 [10],no response
